Molecules are shown by their SMILES.

The values below come from patent US20260376299A1, “METHODS OF TREATING ACUTE MYELOID LEUKEMIA” (The Regents of the University of Colorado, A Body Corporate, priority 2022, published 2026).

One assay deals with p-LSCs. Nature of the assay: Colony-forming unit (CFU) assay on p-LSCs. It is filed as cell-based, human. The protocol: (§1) FIG. 6C and FIG. 6D show the impact of chemotherapy agents AraC, DNR, DHODH inhibitor brequinar (BRQ), and TYMS inhibitor methotrexate (MTX) on the CFU potential of m-LSCs, p-LSCs and CD34+ HSPCs. […] IP, intraperitoneal; OG, oral gavage. […] Engraft % was determined by % of hCD45+/mCD45− cells within total viable bone marrow mononuclear cells. Each dot represents a unique mouse. For PDX of AML-13, control (n=11), VEN+AZA(n=9), CdA(n=10), VEN+AZA+CdA(n=10). For PDX of AML-07, control(n=11), VEN+AZA(n=9), CdA(n=12), VEN+AZA+CdA(n=9). Box plots represent median+interquartile range. Kruskal-Wallis test was used. ns, not significant. […] Engraft % was determined by % of hCD45+/mCD45− cells within total viable spleen mononuclear cells. hCD45+ count was determined by direct quantification of hCD45+/mCD45− cells within a set volume of spleen harvest using flow cytometry. Each dot represents a unique mouse. Control (n=6), VEN+AZA(n=6), CdA(n=6), VEN+AZA+CdA(n=6). Box plots represent median+/−interquartile. Kruskal-Wallis test was used. ns, not significant. […]
(§2) Freshly sorted m-LSCs from primary AMLs or prepared CD34+ HSPCs isolated from normal mobilized peripheral samples were plated in human methylcellulose (R&D systems) at about 100 K/ml and 2 K/ml, respectively. […] Colonies were counted 2-3 weeks after the initial plating.

For the next assay, the system named is m-LSCs. The assay can be described thus: Colony-forming unit (CFU) assay on m-LSCs. Particulars: for potency against m-LSCs, CdA versus BRQ and MTX / selectivity for m-LSCs over p-LSCs and normal HSPCs: CFU assay; for potency against m-LSCs, CdA versus BRQ and MTX: FIG. 6D; for selectivity for m-LSCs over p-LSCs and normal HSPCs: FIG. 6C. The format is cell-based, human. The protocol: FIG. 6C and FIG. 6D show the impact of chemotherapy agents AraC, DNR, DHODH inhibitor brequinar (BRQ), and TYMS inhibitor methotrexate (MTX) on the CFU potential of m-LSCs, p-LSCs and CD34+ HSPCs. […] IP, intraperitoneal; OG, oral gavage. […] Engraft % was determined by % of hCD45+/mCD45− cells within total viable bone marrow mononuclear cells. Each dot represents a unique mouse. For PDX of AML-13, control (n=11), VEN+AZA(n=9), CdA(n=10), VEN+AZA+CdA(n=10). For PDX of AML-07, control(n=11), VEN+AZA(n=9), CdA(n=12), VEN+AZA+CdA(n=9). Box plots represent median+interquartile range. Kruskal-Wallis test was used. ns, not significant. […] Engraft % was determined by % of hCD45+/mCD45− cells within total viable spleen mononuclear cells. hCD45+ count was determined by direct quantification of hCD45+/mCD45− cells within a set volume of spleen harvest using flow cytometry. Each dot represents a unique mouse. Control (n=6), VEN+AZA(n=6), CdA(n=6), VEN+AZA+CdA(n=6). Box plots represent median+/−interquartile. Kruskal-Wallis test was used. ns, not significant.
(§3) Methotrexate (MTX), brequinar (BRQ), and cladribine (CdA) were selected based on their activities in inhibiting one-carbon metabolism enzymes DHFR and TYMS, pyrimidine synthesis enzyme DHODH, and purine-based DNA/RNA synthesis, respectively. Colony-forming unit assays were performed on m-LSCs and p-LSCs isolated from Mono, Multi-MMP, and Prim specimens, along with normal CD34+ hematopoietic stem and progenitor cells (HSPC) from two healthy donors.
Freshly sorted m-LSCs from primary AMLs or prepared CD34+ HSPCs isolated from normal mobilized peripheral samples were plated in human methylcellulose (R&D systems) at about 100 K/ml and 2 K/ml, respectively. Small molecule inhibitors were directly added into the methylcellulose at the desired final concentration at the plating. Colonies were counted 2-3 weeks after the initial plating.

The subject of assay [1] is monocytic subpopulation of engrafted AML cells. Nature of the assay: Flow analysis of residual engrafted human cells after in vivo treatment. Set-up: species or system human AML in NSG-S mice. The protocol: as §3
NSG-S (NOD.Cg-Prkdcscid Il2rgtm1Wjl Tg(CMV-IL3,CSF2,KITLG)1Eav/MloySzJ) mice (The Jackson Laboratory) were used for xenograft studies in this study. Male or female mice ranging in age from 6 to 8 weeks were started on experiment. Littermates of the same sex were randomly assigned to experimental groups. NSG-S mice were pre-conditioned 24 hours prior to transplant with 30 mg/kg busulfan (Alfa Acsar) via intraperitoneal (IP) injection. The busulfan stock was made fresh at 25 mg/ml in 100% DMSO, then the stock was diluted 1:10 in pre-warmed saline (0.9% NaCl) down to 2.5 mg/ml right before use. The diluted busulfan solution was kept in 37 °C water bath before IP injection to prevent precipitation of busulfan due to low solubility. […]
About 2-4 weeks post initial transplant, tumor burden in the bone marrow was determined to be above 5% in sentinel mice. […]

Another assay relates to normal CD34+ HSPCs. The assay can be described thus: Colony-forming unit (CFU) assay on normal CD34+ HSPCs. It is filed as cell-based, human. The note with it: normal CD34+ HSPCs from two healthy donors. The protocol: as §1, §2
For the next assay, the system named is AML patients. The note with it: cited from earlier work.

For the compound `Nc1nc(Cl)nc2c1ncn2[C@H]1C[C@@H](O)[C@@H](CO)O1` (stereo in doubt) [CdA, 5-(6-Amino-2-chloro-purin-9-yl)-2-(hydroxymethyl)oxolan-3-ol], the “effect on CFU potential (sparing)” value with p-LSCs is on record as “sparing p-LSCs”; with normal CD34+ HSPCs, “sparing p-LSCs as well as normal HSPC controls”. The “potency against m-LSCs, CdA versus BRQ and MTX” value (“potency … CdA versus BRQ and MTX” for short) in the assay on m-LSCs was “outperformed BRQ and MTX in potency against m-LSCs”. In addition, the “effect on CFU potential / specificity against m-LSCs” value in the assay on m-LSCs (m-LSCs isolated from AML specimens) is “remarkable specificity against m-LSCs”. For the same compound, the “clearance of the monocytic subpopulation” value in assay [1] is on record as “targeted the monocytic counterpart”. As to `Cc1c(-c2ccc(-c3ccccc3F)cc2)nc2ccc(F)cc2c1C(=O)O` [BRQ, 6-fluoro-2-(2′-fluoro-1,1′-biphenyl-4-yl)-3-methyl-4-quinolinecarboxylic acid], the “potency … CdA versus BRQ and MTX” value in the assay with m-LSCs is “CdA also outperformed BRQ and MTX in potency against m-LSCs”.

For the compound `CN(Cc1cnc2nc(N)nc(N)c2n1)c1ccc(C(=O)N[C@@H](CCC(=O)O)C(=O)O)cc1` [MTX, (28)-2-[(4-{[(2,4-Diaminopteridin-6-yl)methyl](methyl)amino}benzoyl)amino]pentanedioic acid], in the assay with m-LSCs, the “potency … CdA versus BRQ and MTX” value is “CdA also outperformed BRQ and MTX in potency against m-LSCs”. As to `Nc1ccn([C@@H]2O[C@H](CO)[C@@H](O)[C@@H]2O)c(=O)n1` [cytarabine, 4-amino-1-[(2R,3S,4S,5R)-3,4-dihydroxy-5-(hydroxymethyl)oxolan-2-yl]pyrimidin-2-one], the “selectivity for m-LSCs over p-LSCs and normal HSPCs” value with m-LSCs is “selectivity was not seen”. On the same count and under the same terms, next, `COc1cccc2c1C(=O)c1c(O)c3c(c(O)c1C2=O)C[C@@](O)(C(C)=O)C[C@@H]3O[C@H]1C[C@H](N)[C@H](O)[C@H](C)O1` [daunorubicin]: “selectivity was not seen”. `CC1(C)CCC(CN2CCN(c3ccc(C(=O)NS(=O)(=O)c4ccc(NCC5CCOCC5)c([N+](=O)[O-])c4)c(Oc4cnc5[nH]ccc5c4)c3)CC2)=C(c2ccc(Cl)cc2)C1` [venetoclax, 4-(4-{[2-(4-Chlorophenyl)-4,4-dimethyl-1-cyclohexen-1-yl]methyl}-1-piperazinyl)-N-({3-nitro-4-[(tetrahydro-2H-pyran-4-ylmethyl)amino]phenyl}sulfonyl)-2-(1H-pyrrolo[2,3-b]pyridin-5-yloxy)benzamide]: the “responses to venetoclax in combination with backbone chemotherapy” value in the assay with AML patients (older previously untreated AML patients) was 60-70%. In the assay on AML patients (venetoclax combined with chemotherapy regimens FLAG-Ida, CLIA or Clad-LDAC/AZA, recent clinical trials), the “CR/CRi and MRD negativity rates” value was “superior CR/CRi and MRD negativity rates”.
